Structures can show the parent of a compound that is named as a salt.
Target: T1, BRD4 BD1 (Homo sapiens, UniProt O60885, Y390A)
T1 construct: BRD4 (1-477) (Y97A) and (Y390A); made in house; host or cells: E. coli (pET15b vector)
Assay: TR-FRET binding assay, BRD4 BD1 (mutant protein)
Settings: BRD4 (1-477) mutant, 10 nM protein, read-out: pIC50 in the BRD4 BD1 assay (converted)
Protocol: Time Resolved Fluorescence Resonance Energy Transfer (TR-FRET) Assay
Binding was assessed using a time resolved fluorescent resonance energy transfer binding assay. This utilises a 6 His purification tag at the N-terminal of the proteins as an epitope for an anti-6 His antibody labeled with Europium chelate (PerkinElmer AD0111) allowing binding of the Europium to the proteins which acts as the donor fluorophore. A small molecule, high affinity binder of the bromodomains BRD2, BRD3, BRD4 and BRDT has been labeled with Alexa Fluor647 (Reference Compound X) and this acts as the acceptor in the FRET pair.
Assay Principle: In the absence of a competing compound, excitation of the Europium causes the donor to emit at λ618 nm which excites the Alexa labelled bromodomain binding compound leading to an increased energy transfer that is measurable at λ647 […]. In the presence of a sufficient concentration of a compound that can bind these proteins, the interaction is disrupted leading to a quantifiable drop in fluorescent resonance energy transfer.
The binding of the compounds of formula (I) to Bromodomains BRD2, BRD3, BRD4 and BRDT was assessed using mutated proteins to detect differential binding to either Binding Domain 1 (BD1) or Binding Domain 2 (BD2) on the bromodomain. These single residue mutations in the acetyl lysine binding pocket greatly lower the affinity of the fluoroligand (Reference Compound X) for the mutated domain (>1000 fold selective for the non-mutated domain). Therefore in the final assay conditions, binding of the fluoroligand to the mutated domain cannot be detected and subsequently the assay is suitable to determine the binding of compounds to the single non-mutated bromodomain.
Protein production: Recombinant Human Bromodomains [(BRD2 (1-473) (Y113A) and (Y386A), BRD3 (1-435) (Y73A) and (Y348A) BRD4 (1-477) (Y97A) and (Y390A) and BRDT (1-397) (Y66A) and (Y309A)] were expressed in E. coli cells (in pET15b vector for BRD2/3/4 and in pET28a vector for BRDT) with a 6-His tag at the N-terminal. The His-tagged Bromodomain pellet was resuspended in 50 mM HEPES (pH7.5), 300 mM NaCl, 10 mM imidazole & 1 μl/mL protease inhibitor cocktail and extracted from the E. coli cells using sonication and purified using a nickel sepharose high performance column, the proteins were washed and then eluted with a linear gradient of 0-500 mM imidazole with buffer 50 mM HEPES (pH7.5), 150 mM NaCl, 500 mM imidazole, over 20 column volumes. Final purification was completed by Superdex 200 prep grade size exclusion column. Purified protein was stored at −80° C. in 20 mM HEPES pH 7.5 and 100 mM NaCl. Protein identity was confirmed by peptide mass fingerprinting and predicted molecular weight confirmed by mass spectrometry.
Protocol for Bromodomain BRD2, 3, 4 and T, BD1^+BD2 mutant assays: All assay components were dissolved in buffer composition of 50 mM HEPES pH7.4, 50 mM NaCl, 5% Glycerol, 1 mM DTT and 1 mM CHAPS. The final concentration of bromodomain proteins were 10 nM and the Alexa Fluor647 ligand was at Kd. These components were premixed and 5 μl of this reaction mixture was added to all wells containing 50 nl of various concentrations of test compound or DMSO vehicle (0.5% DMSO final) in Greiner 384 well black low volume microtitre plates and incubated in dark for 30 minutes at room temperature. 5 μl of detection mixture containing 1.5 nM final concentration anti-6His Europium chelate was added to all wells and a further dark incubation of at least 30 minutes was performed. Plates were then read on the Envision platereader, (λex=317 nm, donor λem=615 nm; acceptor λem=665 nm; Dichroic LANCE dual). Time resolved fluorescent intensity measurements were made at both emission wavelengths and the ratio of acceptor/donor was calculated and used for data analysis. All data was normalized to the mean of 16 high (inhibitor control—Example 11 of WO 2011/054846A1) and 16 low (DMSO) control wells on each plate. […]

SMILES	IC50
CC(=O)Nc1cc(-c2cn(C)c(=O)c3cc(CN4CCN(S(C)(=O)=O)CC4)oc23)ccn1 [Example 37, N-(4-(5-methyl-2-((4-(methylsulfonyl)piperazin-1-yl)methyl)-4-oxo-4,5-dihydrofuro[3,2-c]pyridin-7-yl)pyridin-2-yl)acetamide]	≤ 100 nM
CC(=O)Nc1cncc(-c2cn(C)c(=O)c3cc(CN4CCN(S(C)(=O)=O)C[C@H]4C)oc23)c1 [Example 38, (R)—N-(5-(5-methyl-2-((2-methyl-4-(methylsulfonyl)piperazin-1-yl)methyl)-4-oxo-4,5-dihydrofuro[3,2-c]pyridin-7-yl)pyridin-3-yl)acetamide]	≤ 100 nM
Cn1cc(-c2ccncc2NCC2CC2)c2oc(CN3CCN(S(C)(=O)=O)CC3)cc2c1=O [Example 39, 7-(3-((cyclopropylmethyl)amino)pyridin-4-yl)-5-methyl-2-((4-(methylsulfonyl)piperazin-1-yl)methyl)furo[3,2-c]pyridin-4(5H)-one]	≤ 100 nM
C[C@@H]1CN(S(C)(=O)=O)CCN1Cc1cc2c(=O)n(C)cc(-c3ncccc3OCC3CC3)c2o1 [Example 44, (R)-7-(3-(cyclopropylmethoxy)pyridin-2-yl)-5-methyl-2-((2-methyl-4-(methylsulfonyl)piperazin-1-yl)methyl)furo[3,2-c]pyridin-4(5H)-one]	≤ 100 nM
CC(=O)N1CCN(Cc2cc3c(=O)n(C)cc(-c4ccnc(OCC5CCOCC5)c4)c3o2)C(C)C1 (stereo not shown) [Example 47, 2-((4-acetyl-2-methylpiperazin-1-yl)methyl)-5-methyl-7-(2-((tetrahydro-2H-pyran-4-yl)methoxy)pyridin-4-yl)furo[3,2-c]pyridin-4(5H)-one hydrochloride]	≤ 100 nM
CC(=O)Nc1cccc(-c2cn(C)c(=O)c3cc(CN4CCN(S(C)(=O)=O)CC4)oc23)c1 [Example 48, N-(3-(5-methyl-2-((4-(methylsulfonyl)piperazin-1-yl)methyl)-4-oxo-4,5-dihydrofuro[3,2-c]pyridin-7-yl)phenyl)acetamide]	≤ 100 nM
C[C@@H]1CN(S(C)(=O)=O)CCN1Cc1cc2c(=O)n(C)cc(-c3cccnc3NCC3CC3)c2o1 [Example 49, (R)-7-(2-((cyclopropylmethyl)amino)pyridin-3-yl)-5-methyl-2-((2-methyl-4-(methylsulfonyl)piperazin-1-yl)methyl)furo[3,2-c]pyridin-4(5H)-one]	≤ 100 nM
C[C@@H]1CN(S(C)(=O)=O)CCN1Cc1cc2c(=O)n(C)cc(-c3cccc(N)c3)c2o1 [Example 50, (R)-7-(3-aminophenyl)-5-methyl-2-((2-methyl-4-(methylsulfonyl)piperazin-1-yl)methyl)furo[3,2-c]pyridin-4(5H)-one]	≤ 100 nM
CC(=O)Nc1cccc(-c2cn(C)c(=O)c3cc(CN4CCN(S(C)(=O)=O)C[C@H]4C)oc23)n1 [Example 54, (R)-N-(6-(5-methyl-2-((2-methyl-4-(methylsulfonyl)piperazin-1-yl)methyl)-4-oxo-4,5-dihydrofuro[3,2-c]pyridin-7-yl)pyridin-2-yl)acetamide]	≤ 100 nM
Cn1cc(-c2ccncc2OCC2CC2)c2oc(CN3CCCNCC3)cc2c1=O [Example 55, 2-((1,4-diazepan-1-yl)methyl)-7-(3-(cyclopropylmethoxy)pyridin-4-yl)-5-methylfuro[3,2-c]pyridin-4(5H)-one hydrochloride]	≤ 100 nM
CN1CCCN(Cc2cc3c(=O)n(C)cc(-c4ccncc4OCC4CC4)c3o2)CC1 [Example 56, 7-(3-(cyclopropylmethoxy)pyridin-4-yl)-5-methyl-2-((4-methyl-1,4-diazepan-1-yl)methyl)furo[3,2-c]pyridin-4(5H)-one hydrochloride]	≤ 100 nM
CN1CCCN(Cc2cc3c(=O)n(C)cc(-c4cccc(NCc5ccccn5)c4)c3o2)CC1 [Example 57, 5-methyl-2-((4-methyl-1,4-diazepan-1-yl)methyl)-7-(3-((pyridin-2-ylmethyl)amino)phenyl)furo[3,2-c]pyridin-4(5H)-one hydrochloride]	≤ 100 nM
C[C@@H]1CN(S(C)(=O)=O)CCN1Cc1cc2c(=O)n(C)cc(-c3ccnc(N)c3)c2o1 [Example 59, (R)-7-(2-aminopyridin-4-yl)-5-methyl-2-((2-methyl-4-(methylsulfonyl)piperazin-1-yl)methyl)furo[3,2-c]pyridin-4(5H)-one]	≤ 100 nM

More lines, now with the values ahead:

IC50	SMILES
≤ 100 nM	C[C@@H]1CN(S(C)(=O)=O)CCN1Cc1cc2c(=O)n(C)cc(-c3ccncc3NCC3CC3)c2o1 [Example 40, (R)-7-(3-((cyclopropylmethyl)amino)pyridin-4-yl)-5-methyl-2-((2-methyl-4-(methylsulfonyl)piperazin-1-yl)methyl)furo[3,2-c]pyridin-4(5H)-one]
≤ 100 nM	C[C@@H]1CN(S(C)(=O)=O)CCN1Cc1cc2c(=O)n(C)cc(-c3ccncc3OCC3CCO3)c2o1 (stereo partly drawn) [Example 41, 5-methyl-2-(((R)-2-methyl-4-(methylsulfonyl)piperazin-1-yl)methyl)-7-(3-(oxetan-2-ylmethoxy)pyridin-4-yl)furo[3,2-c]pyridin-4(5H)-one]
≤ 100 nM	C[C@@H]1CN(S(C)(=O)=O)CCN1Cc1cc2c(=O)n(C)cc(-c3ccncc3OC[C@H]3CCO3)c2o1 [Example 42, 5-methyl-2-(((R)-2-methyl-4-(methylsulfonyl)piperazin-1-yl)methyl)-7-(3-((R)-oxetan-2-ylmethoxy)pyridin-4-yl)furo[3,2-c]pyridin-4(5H)-one]
≤ 100 nM	C[C@@H]1CN(S(C)(=O)=O)CCN1Cc1cc2c(=O)n(C)cc(-c3ccncc3OC[C@@H]3CCO3)c2o1 [Example 43, 5-methyl-2-(((R)-2-methyl-4-(methylsulfonyl)piperazin-1-yl)methyl)-7-(3-((S)-oxetan-2-ylmethoxy)pyridin-4-yl)furo[3,2-c]pyridin-4(5H)-one]
≤ 100 nM	C[C@@H]1CN(S(C)(=O)=O)CCN1Cc1cc2c(=O)n(C)cc(-c3ccncc3OCC3COC3)c2o1 [Example 46, (R)-5-methyl-2-((2-methyl-4-(methylsulfonyl)piperazin-1-yl)methyl)-7-(3-(oxetan-3-ylmethoxy)pyridin-4-yl)furo[3,2-c]pyridin-4(5H)-one]
≤ 100 nM	CCOc1cnccc1-c1cn(C)c(=O)c2cc(CN3CCN(S(C)(=O)=O)C[C@H]3C)oc12 [Example 52, (R)-7-(3-ethoxypyridin-4-yl)-5-methyl-2-((2-methyl-4-(methylsulfonyl)piperazin-1-yl)methyl)furo[3,2-c]pyridin-4(5H)-one]
≤ 100 nM	CC(C)Oc1cnccc1-c1cn(C)c(=O)c2cc(CN3CCN(S(C)(=O)=O)C[C@H]3C)oc12 [Example 58, (R)-7-(3-isopropoxypyridin-4-yl)-5-methyl-2-((2-methyl-4-(methylsulfonyl)piperazin-1-yl)methyl)furo[3,2-c]pyridin-4(5H)-one]
≤ 100 nM	C[C@@H]1CN(S(C)(=O)=O)CCN1Cc1cc2c(=O)n(C)cc(-c3ccncc3O)c2o1 [Example 60, (R)-7-(3-hydroxypyridin-4-yl)-5-methyl-2-((2-methyl-4-(methylsulfonyl)piperazin-1-yl)methyl)furo[3,2-c]pyridin-4(5H)-one]
≤ 10 nM	C[C@@H]1CN(S(C)(=O)=O)CCN1Cc1cc2c(=O)n(C)cc(-c3ccncc3OCC3CC3(F)F)c2o1 (stereo partly drawn) [Example 61, 7-(3-((2,2-difluorocyclopropyl)methoxy)pyridin-4-yl)-5-methyl-2-(((R)-2-methyl-4-(methylsulfonyl)piperazin-1-yl)methyl)furo[3,2-c]pyridin-4(5H)-one]

Source: patent US9670221B2, “Furopyridines as bromodomain inhibitors” (GlaxoSmithKline Intellectual Property (No.2) Limited, priority 2013, dated 2017)
